Experimental data: PubChem BioAssay (NCI)
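Results reflect a 48-hour exposure of cells in 96-well plates to compound at five concentrations. TGI marks complete inhibition of growth.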

Key:
Test in all cases: NCI-60 cell line screen, 48 h
[1] = test system: DU-145 prostate
[2] = test system: NCI-H522 lung
[3] = test system: SF-295 CNS
[4] = test system: RXF 393 renal
[5] = test system: SK-OV-3 ovarian
[6] = test system: UO-31 renal
[7] = test system: RPMI-8226 leukemia
[8] = test system: HOP-62 NSCLC
[9] = test system: SNB-19 CNS
[10] = test system: HCC-2998 colon
[11] = test system: MDA-N
[12] = test system: T-47D breast
[13] = test system: OVCAR-3 ovarian
[14] = test system: SF-539 CNS
[15] = test system: MDA-MB-231 breast
[16] = test system: HT29 colon
[17] = test system: M14 melanoma
[18] = test system: OVCAR-5 ovarian
[19] = test system: U251 CNS
[20] = test system: ACHN renal
[21] = test system: EKVX NSCLC
[22] = test system: K-562 leukemia
[23] = test system: SNB-75 CNS
[24] = test system: LOX IMVI melanoma
[25] = test system: COLO 205 colon
[26] = test system: TK-10 renal
[27] = test system: MDA-MB-435
[28] = test system: KM12 colon
[29] = test system: HL-60(TB) leukemia
[30] = test system: NCI/ADR-RES ovarian
[31] = test system: A549 NSCLC
[32] = test system: MOLT-4 leukemia
[33] = test system: OVCAR-8 ovarian
[34] = test system: 786-0 renal
[35] = test system: UACC-257 melanoma
[36] = test system: PC-3 prostate
[37] = test system: HCT-116 colon
[38] = test system: UACC-62 melanoma
[39] = test system: MCF7 breast
[40] = test system: SR leukemia
[41] = test system: SK-MEL-28 melanoma
[42] = test system: HCT-15 colon
[43] = test system: SF-268 CNS
[44] = test system: BT-549 breast
[45] = test system: CAKI-1 renal
[46] = test system: IGROV1 ovarian
[47] = test system: MALME-3M melanoma
[48] = test system: CCRF-CEM leukemia
[49] = test system: NCI-H226 lung
[50] = test system: SW-620 colon
[51] = test system: SK-MEL-5 melanoma
[52] = test system: NCI-H23 lung
[53] = test system: SN12C renal
[54] = test system: NCI-H460 lung
[55] = test system: OVCAR-4 ovarian
[56] = test system: SK-MEL-2 melanoma
[57] = test system: HS 578T breast
[58] = test system: HOP-92 NSCLC
[59] = test system: A498 renal

## C[N+](C)(C)CCOP(=O)([O-])OCCNC(=O)c1ccc2ccccc2c1
[1]
  TGI: > 100 µM
[2]
  TGI: > 100 µM
[3]
  TGI: > 100 µM
[4]
  TGI: > 100 µM
[5]
  TGI: > 100 µM
[6]
  TGI: > 100 µM
[7]
  TGI: > 100 µM
[8]
  TGI: > 100 µM
[9]
  TGI: > 100 µM
[10]
  TGI: > 100 µM
[11]
  TGI: > 100 µM
[12]
  TGI: > 100 µM
[13]
  TGI: > 100 µM
[14]
  TGI: > 100 µM
[15]
  TGI: > 100 µM
[16]
  TGI: > 100 µM
[17]
  TGI: > 100 µM
[18]
  TGI: > 100 µM
[19]
  TGI: > 100 µM
[20]
  TGI: > 100 µM
[21]
  TGI: > 100 µM
[22]
  TGI: > 100 µM
[23]
  TGI: > 100 µM
[24]
  TGI: > 100 µM
[25]
  TGI: > 100 µM
[26]
  TGI: > 100 µM
[27]
  TGI: > 100 µM
[28]
  TGI: > 100 µM
[29]
  TGI: > 100 µM
[30]
  TGI: > 100 µM
[31]
  TGI: > 100 µM
[32]
  TGI: > 100 µM
[33]
  TGI: > 100 µM
[34]
  TGI: > 100 µM
[35]
  TGI: > 100 µM
[36]
  TGI: > 100 µM
[37]
  TGI: > 100 µM
[38]
  TGI: > 100 µM
[39]
  TGI: > 100 µM
[40]
  TGI: > 100 µM
[41]
  TGI: > 100 µM
[42]
  TGI: > 100 µM
[43]
  TGI: > 100 µM
[44]
  TGI: > 100 µM
[45]
  TGI: > 100 µM
[46]
  TGI: > 100 µM
[47]
  TGI: > 100 µM
[48]
  TGI: > 100 µM
[49]
  TGI: > 100 µM
[50]
  TGI: > 100 µM
[51]
  TGI: > 100 µM
[52]
  TGI: > 100 µM
[53]
  TGI: > 100 µM

## CCSc1nc(-c2cccs2)nc2ccc(I)cc12
[1]
  TGI: > 100 µM
[2]
  TGI: > 100 µM
[3]
  TGI: > 100 µM
[4]
  TGI: > 100 µM
[6]
  TGI: > 100 µM
[7]
  TGI: > 100 µM
[8]
  TGI: > 100 µM
[9]
  TGI: > 100 µM
[10]
  TGI: > 100 µM
[11]
  TGI: > 100 µM
[12]
  TGI: 6.88 µM
[13]
  TGI: > 100 µM
[14]
  TGI: > 100 µM
[16]
  TGI: > 100 µM
[17]
  TGI: > 100 µM
[18]
  TGI: > 100 µM
[19]
  TGI: > 100 µM
[54]
  TGI: > 100 µM
[20]
  TGI: > 100 µM
[21]
  TGI: > 100 µM
[22]
  TGI: > 100 µM
[23]
  TGI: > 100 µM
[24]
  TGI: > 100 µM
[25]
  TGI: > 100 µM
[26]
  TGI: > 100 µM
[27]
  TGI: > 100 µM
[28]
  TGI: > 100 µM
[55]
  TGI: > 100 µM
[29]
  TGI: > 100 µM
[56]
  TGI: > 100 µM
[30]
  TGI: > 100 µM
[31]
  TGI: > 100 µM
[32]
  TGI: > 100 µM
[33]
  TGI: > 100 µM
[34]
  TGI: > 100 µM
[35]
  TGI: > 100 µM
[36]
  TGI: > 100 µM
[37]
  TGI: > 100 µM
[38]
  TGI: > 100 µM
[39]
  TGI: > 100 µM
[40]
  TGI: > 100 µM
[41]
  TGI: > 100 µM
[42]
  TGI: > 100 µM
[43]
  TGI: > 100 µM
[44]
  TGI: > 100 µM
[45]
  TGI: > 100 µM
[46]
  TGI: > 100 µM
[48]
  TGI: > 100 µM
[49]
  TGI: > 100 µM
[50]
  TGI: > 100 µM
[51]
  TGI: > 100 µM
[52]
  TGI: > 100 µM
[53]
  TGI: > 100 µM

## COC(=O)c1ccccc1C1=C([N+](=O)[O-])C(c2cccc(Br)c2)C(C#N)=C(N)O1 (stereo not drawn)
[1]
  TGI: > 100 µM
[2]
  TGI: 29.2 µM
[3]
  TGI: > 100 µM
[4]
  TGI: 41.9 µM
[5]
  TGI: > 100 µM
[7]
  TGI: > 100 µM
[8]
  TGI: > 100 µM
[57]
  TGI: 56.9 µM
[9]
  TGI: > 100 µM
[10]
  TGI: > 100 µM
[11]
  TGI: > 100 µM
[12]
  TGI: 84.6 µM
[13]
  TGI: 51.7 µM
[14]
  TGI: > 100 µM
[15]
  TGI: > 100 µM
[16]
  TGI: > 100 µM
[17]
  TGI: 77.5 µM
[18]
  TGI: > 100 µM
[19]
  TGI: > 100 µM
[54]
  TGI: > 100 µM
[20]
  TGI: 43.4 µM
[21]
  TGI: 97.7 µM
[22]
  TGI: 76.5 µM
[23]
  TGI: 92.6 µM
[24]
  TGI: 38.1 µM
[25]
  TGI: > 100 µM
[26]
  TGI: > 100 µM
[27]
  TGI: 57.4 µM
[29]
  TGI: 70.6 µM
[58]
  TGI: 62.1 µM
[56]
  TGI: > 100 µM
[30]
  TGI: 65.9 µM
[31]
  TGI: > 100 µM
[32]
  TGI: > 100 µM
[33]
  TGI: 45.1 µM
[34]
  TGI: 63.2 µM
[35]
  TGI: > 100 µM
[36]
  TGI: > 100 µM
[37]
  TGI: 92.9 µM
[38]
  TGI: 42.7 µM
[40]
  TGI: > 100 µM
[41]
  TGI: > 100 µM
[42]
  TGI: 41 µM
[43]
  TGI: 93.3 µM
[46]
  TGI: 77.6 µM
[48]
  TGI: 61.8 µM
[49]
  TGI: > 100 µM
[50]
  TGI: 71.4 µM
[51]
  TGI: > 100 µM
[52]
  TGI: 88.2 µM
[53]
  TGI: > 100 µM

## CCOC(=O)C(NC(=O)c1ccccc1)(Nc1ccc(S(=O)(=O)Nc2cc(C)nc(C)n2)cc1)C(F)(F)F (stereo not drawn)
[1]
  TGI: > 100 µM
[2]
  TGI: > 100 µM
[3]
  TGI: > 100 µM
[4]
  TGI: > 100 µM
[6]
  TGI: > 100 µM
[7]
  TGI: > 100 µM
[8]
  TGI: > 100 µM
[57]
  TGI: > 100 µM
[9]
  TGI: > 100 µM
[59]
  TGI: > 100 µM
[11]
  TGI: > 100 µM
[12]
  TGI: > 100 µM
[13]
  TGI: > 100 µM
[14]
  TGI: > 100 µM
[15]
  TGI: > 100 µM
[16]
  TGI: > 100 µM
[17]
  TGI: > 100 µM
[18]
  TGI: > 100 µM
[19]
  TGI: > 100 µM
[54]
  TGI: > 100 µM
[20]
  TGI: > 100 µM
[21]
  TGI: > 100 µM
[22]
  TGI: > 100 µM
[23]
  TGI: > 100 µM
[24]
  TGI: > 100 µM
[25]
  TGI: > 100 µM
[26]
  TGI: > 100 µM
[27]
  TGI: > 100 µM
[28]
  TGI: > 100 µM
[55]
  TGI: > 100 µM
[29]
  TGI: > 100 µM
[58]
  TGI: > 100 µM
[56]
  TGI: > 100 µM
[30]
  TGI: > 100 µM
[31]
  TGI: > 100 µM
[32]
  TGI: > 100 µM
[33]
  TGI: > 100 µM
[34]
  TGI: > 100 µM
[35]
  TGI: > 100 µM
[36]
  TGI: > 100 µM
[37]
  TGI: > 100 µM
[38]
  TGI: > 100 µM
[39]
  TGI: > 100 µM
[40]
  TGI: > 100 µM
[41]
  TGI: > 100 µM
[42]
  TGI: > 100 µM
[43]
  TGI: > 100 µM
[45]
  TGI: > 100 µM
[46]
  TGI: > 100 µM
[47]
  TGI: > 100 µM
[48]
  TGI: > 100 µM
[49]
  TGI: > 100 µM
[50]
  TGI: > 100 µM
[51]
  TGI: > 100 µM
[52]
  TGI: > 100 µM
[53]
  TGI: > 100 µM
